The values that follow come from patent US20220395468A1, “Transdermal Drug Delivery Systems for Administration of a Therapeutically Effective Amount of Lenalidomide and Other Immunomodulatory Agents” (Starton Therapeutics, Inc., priority 2021, published 2022).

The procedure of data set [1]:
Next, the solubility of lenalidomide H1 was determined in silicone polymer-based pressure sensitive adhesives and acrylic polymer-based pressure sensitive adhesives. Pressure sensitive adhesive polymers are the major component of the pressure sensitive adhesives matrix patches and typically constitute 50%-85% of the formulation.

For data set [2] the following is noted: FIG. 10. On the procedure:
In vitro permeability of lenalidomide through human cadaver skin was conducted using in vitro franz diffusion cells to identify potential permeation enhancers for lenalidomide. Donor compartment was loaded with Lenalidomide solution or gel.
Lenalidomide H1 solutions were prepared in following different solvents Lactic acid, Dimethyl sulfoxide, NMP, Levulinic acid, Super refined PEG 400, Tween 40, Polysorbate 80.
Lenalidomide gels were prepared using a following solvent system composition (Table 7). Gels were made with 10 different permeation enhancers.

This is another data set of the same source.
The conditions of data set [3]: cited from earlier work.
For data set [4] the following is noted: cited from earlier work. This is another data set of the same source.
The conditions of data set [5]: people with high-risk SMM, oral; cited from earlier work.

By log P is commonly meant the decadic logarithm of the partition coefficient of the neutral form, usually between octanol and water.

Read-outs that look alike come from different tables or passages of the source.

In the case of `Nc1cccc2c1CN(C1CCC(=O)NC1=O)C2=O` (stereo not drawn) [Lenalidomide H1], the “Lenalidomide H1 solubility” value is on record as “Less than 0.5% W/W” in data set [1] (in BIO-PSA 7-4202 (silicone PSA)); “Less than 0.5% W/W” in data set [1] (in Duro-Tak 87-2052 (acrylic PSA)); “Less than 0.5% W/W” in data set [1] (in Duro-Tak 87-2074 (acrylic PSA)); “Less than 0.5% W/W” in data set [1] (in Duro-Tak 87-2194 (acrylic PSA)); “approximately 0.5% W/W” in data set [1] (in Duro-Tak 87-2516 (acrylic PSA)); “Less than 0.5% W/W” in data set [1] (in Duro-Tak 87-2852 (acrylic PSA)). The “Lenalidomide H1 solubility” value in data set [1] (in Duro-Tak 87-4098 (acrylic PSA)) and in data set [1] (in Duro-Tak 87-9301 (acrylic PSA)) was “Less than 0.5% W/W” throughout. Moreover, the “rate of lenalidomide permeation” value in data set [2] (solution in Lactic acid) was “highest rate”; in data set [2] (solution in Levulinic acid) it was “negligible permeation”; in data set [2] (solutions in NMP and DMSO), “followed by NMP and DMSO”; in data set [2] (solutions in SR PEG 400, TWEEN 40, Polysorbate 80) it was “insignificant to no permeation”. Also, the Solubility by setting is: (Aquasolve HPMC-AS MF (0.25 G) + Solvent system Acetone:Methanol (1:1)) 1.2 % W/W; (Eudragit + Solvent system Acetone:Methanol (1:1)) 0.9 % W/W; (Kollidon 30 (0.5 G) + Solvent system Acetone:Methanol (1:1)) 2.2 % W/W; (Kollidon 90 F (0.5 G) + Solvent system Acetone:Methanol (1:1)) 2.0 % W/W; (Kollidon VA 64 (0.5 G) + Solvent system Acetone:Methanol (1:1)) 2.1 % W/W; (Kollisolv P124 Geismer (0.27 G) + Solvent system Acetone:Methanol (1:1)) 0.9 % W/W. For the same compound, the Solubility reads like this: (in Acetone) 0.2 % W/W; (in Acetonitrile) 0.3 % W/W; (in Dimethyl sulfoxide) 20.7 % W/W; (in Ethanol 190 Proof) 0.2 % W/W; (in Ethyl acetate) under 0.1 % W/W; (in Heptane) under 0.1 % W/W. Moreover, the Solubility is, setting by setting: (in Isooctadecanoic acid) under 0.1 % W/W; (in Lactic acid) 9.3 % W/W; (in Lauryl Lactate) 0.1 % W/W; (in Levulinic acid) 5.5 % W/W; (in Methanol) 0.3 % W/W; (in Methanol:Acetone (1:1)) 0.9 % W/W. Moreover, the Solubility by setting is: (in Methyl Laurate) under 0.1 % W/W; (in NMP) 29.3 % W/W; (in Propylene Glycol) 0.4 % W/W; (in Propylene Glycol monolaurate) under 0.1 % W/W; (in Super refined PEG 400) 1.6 % W/W; (in Toluene) under 0.1 % W/W.
Consider `Nc1cccc2c1CN(C1CCC(=O)NC1=O)C2=O` (stereo not drawn) [Lenalidomide, 3-(4-amino-1-3-dihydro-1-oxo-2H-isoindol-2yl)-2,6-piperidinedione], for which the Solubility (in DMSO, room temperature) is 10-20%; the Solubility result (in NMP, room temperature) was “about 30 % w/w”; the Solubility entry (in esters) is given as “less than 0.5%”; the Solubility entry (in glycols) is recorded as “less than 2%”; the Solubility result (in two organic acids, Lactic acid and levulinic acid) is given as “more than 5%”. Besides, in data set [3], the “solubility of the LLD in solution” value is 400 to 500 µg/mL. The lipophilicity (log P) in data set [4] is −0.4. In addition, the “discontinued due to drug-related side effects” value in data set [5] is 40%. In data set [5], the three-year progression-free survival is 91%.
